According to a melting point compilation (Tetko et al.; mined from patent text by program, amines drawn as free bases though some values may be those of a salt):

Structure (SMILES)	melting point [°C]
COc1ccc(-c2cc(-c3ccc(-c4c(Cc5ccccc5)sc5ccccc45)cc3)ccc2OC(Cc2ccccc2)C(=O)O)cc1 (configuration not stated)	82 to 84
Cc1oc(-c2ccccc2)nc1COc1ccccc1CON=C(CCC(=O)O)c1ccccc1	116 to 117
c1ccc(OCCSCc2nnc(-c3ccc(OCCCN4CCC4)cc3)o2)cc1	60
COc1ccc(-c2c(NC(=O)Nc3ccc(F)cc3F)cnc3ccc(Cl)cc23)c(O)c1OC	218 to 220
COc1ccc(-n2nc(OC)cc2-c2ccc(C#N)cc2)cc1	112 to 113
O=C1CCC(N2Cc3c(OCc4ccc(CN5CCN(C(=O)C6CC6)CC5)cc4)cccc3C2=O)C(=O)N1 (configuration not stated)	233 to 235
CCOC(=O)c1cc(-c2cc(Br)cc(Br)c2)cnc1C	100 to 102
Ic1ccc2c(c1)ncn2-c1cccc(-n2cccn2)c1	209 to 211
COc1cc(C(=O)O)cc2c(C)c(C)oc12	229 to 231
O=S(=O)(On1nnc2ccc(Cl)cc21)c1ccc(Cl)cc1	125 to 127
NS(=O)(=O)c1ccc(-n2nc(C(F)(F)F)cc2-c2ccc(F)cc2)cc1	165 to 166
O=C(O)Cc1cc(C(=O)Cc2ccc(C(=O)O)cc2)ccc1O	> 260
CCc1cc2c(s1)-n1nc(C(N)=O)nc1C(OC(C)=O)N=C2c1ccccc1Cl (configuration not stated)	168 to 170
COC(c1ccccc1)c1nc2c(N)nc3ccccc3c2n1CC(C)C (configuration not stated)	183 to 184
CCCCn1c(=O)cc(O)c2ccccc21	211 to 213
CCN(CC)C(=O)Oc1cc(-c2ccncc2)nc2ccccc12	76
O=c1ccc(S(=O)(=O)n2nc(Cl)c3ccccc32)n[nH]1	238 to 239
CNc1ccccc1-c1nc2ncccc2[nH]1	262 to 263
CC(C)(C)OC(=O)N1CCC(CS(=O)Cc2cc(C(F)(F)F)cc(C(F)(F)F)c2)(c2ccccc2)CC1 (configuration not stated)	123 to 134
O=[N+]([O-])c1ccc(-c2ccc(-c3ccc([N+](=O)[O-])cc3C(F)(F)F)o2)c(C(F)(F)F)c1	158 to 159
Cc1cccc(C(=O)c2[nH]c3ccc(Cl)cc3c2CC(=O)O)c1	173 to 174
CCCCNC(=O)Oc1ccc(Oc2ccc([N+](=O)[O-])cc2)cc1	122 to 124
CCC(C)(C)Cc1ccc(C(=O)O)c(=O)[nH]1	170 to 172
CNC(=O)c1sc(C(C)(C)C)cc1NC(=O)Nc1ccc(F)cc1	203 to 204
Cc1cc([N+](=O)[O-])c(O)cc1Cl	70 to 71

Structure (SMILES)	melting point [°C]
CC(CCCC(C)(C)Cl)C1CC=C2C3=C(CCC21C)C1(C)CCC(O)C(C)(C)C1CC3 (configuration not stated)	131 to 133
CC1=NC(=NOC(=O)NC(C)C)SC1(C)C	114 to 116
O=C(NCCCc1cccs1)n1cc(F)c(=O)[nH]c1=O	131 to 133
CN(C(=O)c1ccccc1)[Si](C)(C)N(C)C(=O)c1ccccc1	54 to 56
Cc1ccc(-c2nc3ccc(C(C)(C)CNC=O)cc3[nH]2)cc1	193 to 195
CCC(C)(C)NS(=O)(=O)c1ccc(CBr)cc1	100
CCCCCCNC(=O)Nc1cccc2c1C1(COc3cc4c(cc31)OCCO4)C(=O)N2C (configuration not stated)	154 to 155
CCOC(=O)COc1ccc(S(=O)(=O)c2ccc(C)nc2Nc2c(C)cc(C)cc2C)cc1	116 to 118
NC(=S)Nc1cc(Cl)cc(Cl)c1	180
C=CCOn1cc(C(=O)NCc2ccc(Cl)cc2)c(=O)c2ccccc21	113 to 114
CCOC(=O)c1c(-c2ccccc2)nc(Cl)n1C	54 to 55
CC(C)n1nc(-c2cc(C(=O)NCc3ccccn3)cnc2-c2ccccc2)ccc1=O	193 to 194
O=C1CC2CCCC(CC(=O)OCc3ccccc3)C2N1 (configuration not stated)	89 to 90
CC[C@@H]1CN(c2c(F)cc3c(=O)c(C(=O)O)cn4c3c2OC[C@@H]4C)C[C@H]1N	189 to 191
O=C(O)CCCNc1ccc2c(NC(=O)CC3CCCCC3)c(Cl)ccc2n1	248 to 250
COC(=O)CCn1c(=O)n(CCN2CCN(c3ccccc3OC)CC2)c(=O)c2c(C)scc21	127 to 128
CC(C)(Oc1ccc(OCCCCc2cc(-c3ccc(C(F)(F)F)cc3)no2)cc1)C(=O)O	103 to 104
O=C1CCC(N2C(=O)c3cccc(NCC(=O)N4CCC4)c3C2=O)C(=O)N1 (configuration not stated)	272 to 274
CCOC(=O)N1CCC(c2nc(-c3ccc(-c4ccccc4)cc3)c[nH]2)CC1	71 to 72
Cn1c(=O)c2c(C(=O)O)nc(O)n2c2ccccc21	> 300
O=C(/C=C/c1ccccc1Sc1ccc(Cl)cc1)NC1CCC(O)CC1 (configuration not stated)	86 to 88
O=S1(=O)c2ccccc2N(c2ccccc2O)c2ccccc21	282 to 287
CCOC(=O)C1(C(=O)Nc2ccc(Br)cc2C)CCCC1	64 to 67
CC(CC#CC(C)(C)O[Si](C)(C)C(C)(C)C)C1=CCC2C3=CC=C4CC(O[Si](C)(C)C(C)(C)C(C)C)CCC4(C)C3CCC12C (configuration not stated)	62 to 66
Cc1cccc(Cn2cc(C(=O)C(=O)NC3=CC(=O)OC3)c3ccccc32)c1	298 to 300

Structure (SMILES)	melting point [°C]
COc1ccc(Cl)cc1NC(=O)NCC(=O)c1ccccc1	171 to 173
CCC(=O)N1CCC(NC(=O)Nc2cccc(C(F)(F)F)c2)CC1	153 to 154
CC1(C)CCc2c(-c3ccco3)nc3sc4c(NCc5ccccn5)ncnc4c3c2C1	233
Cc1ccc(C2=CCN(CCCc3nnc4n3CCCCC4)CC2)cc1	93 to 96
O=C(N[C@H](Cc1cccc(OCC(F)(F)F)c1)[C@@H](O)c1ccc(F)cc1)c1ccc(F)c2ccccc12 (racemic)	192 to 193
COc1cc2c(Cl)nc3c4ccccc4nc(Cl)c3c2cc1OC	245 to 246
COC1CCc2c(Nc3ccc(C#N)cc3)ncnc21 (configuration not stated)	167 to 169
Fc1ccc(-c2cccc(-c3cn([C@H]4CN5CCC4CC5)nn3)c2)cn1	164
CS(=O)(=O)c1ccc(C2=C(c3ccccc3)C(=O)OC2)cc1F	161 to 162
O=C(N[C@H](Cc1ccccc1)C(=O)O)OCc1ccc(COc2ccccc2)cc1	116 to 117
COc1cc2c(cc1OC)C(Cc1ccncc1)(Cc1ccncc1)CN=C2c1ccccc1	168 to 169
CN(Cc1ccc(NC(=O)C2=Cc3cc(-c4ccc(Cl)s4)ccc3S(=O)(=O)CC2)cc1)C1CCOCC1	221 to 222
CC1(C)SC(=S)N(Cc2cccs2)C(=O)C1NC(=O)c1ccc(Cl)cc1 (configuration not stated)	176 to 177
Oc1ccc([C@H]2CC[C@@H](NCCOc3ccccc3)CC2)cc1	149 to 154
COc1c(C)c(C)c(NC(=O)OC(C)(C)C)c(C)c1Br	159 to 161
CCC(=O)n1nc(-c2cc(C(C)(C)C)c(O)c(C(C)(C)C)c2)c2cccnc21	184 to 185
CCc1ncnc(O)c1Br	175 to 177
COC(=O)CCc1ccc(-n2c(C)cn(-c3ccc(C(=N)NC(=O)OC)cc3)c2=O)cc1	212 to 213
CN(C)CCSc1c2ccccc2c(-c2cc(Br)c(O[C@H](Cc3ccccc3)C(=O)O)c(Br)c2)c2c1sc1ccccc12	169 to 174
COc1ccccc1NC(=NC#N)NC(NC(=O)c1ccc(Cl)cc1)C(C)(Cl)Cl (configuration not stated)	185 to 186
COc1cc2ncc(CO)c(-c3ccnc(NN)c3)c2cc1OC	217 to 220
Clc1ccc2[nH]c(-c3ccccc3)c(CCN3CCCCC3)c2c1	153 to 154
O=C(C=Cc1cccc(S(=O)(=O)NCc2ccc3c(c2)OCO3)c1)NO	163
COc1cccc2c1nc(C(F)F)n2-c1nc(N2CCOCC2)c2ncn(-c3cncnc3)c2n1	248 to 251
COC(=O)CCC/C=C(\c1cc(C)c(OC)c(C(=O)OC)c1)c1cc(C)c2oc(=O)n(C)c2c1	120

Structure (SMILES)	melting point [°C]
O=C(O)CN1C(=O)C(c2ccccc2)c2ccccc21 (configuration not stated)	180 to 181
CCOC(=O)c1c(N)cc(C(F)(F)F)nc1C(F)(F)F	43 to 45
Cc1cc(-n2ccnc2)c2cccc(OCc3c(Cl)ccc(S(=O)(=O)N4CCC[C@H]4C(=O)NCCCN(C)C(=O)OC(C)(C)C)c3Cl)c2n1	75
O=C(c1ccc(-c2ccccc2)cc1)N1Cc2ccccc2Nc2ccccc21	180 to 182
CCS(=O)(=O)c1cn(C)c2ccccc2c1=O	164 to 166
NC(=O)/C=C1\CC(O)c2ccc(F)cc21 (configuration not stated)	166 to 168
CC(C)(Oc1ccccc1S(C)(=O)=O)C(=O)O	114 to 116
COC(=O)C(O)C(CC(C)C)NC(=O)C(Cc1c[nH]cn1)NC(=O)C(CC(=O)N(C)C)Cc1cccc2ccccc12 (mixture of isomers)	117 to 121
CC1Cc2c(c3cccnc3n(-c3ccc(Cl)c(Cl)c3)c2=O)O1 (configuration not stated)	273 to 274
Cc1nc2ccccc2n2c(-c3cc(OCC(F)c4ccccn4)ccc3Cl)nnc12 (configuration not stated)	155 to 157
CSc1ncc(C(=O)Cc2c(Cl)cncc2Cl)cc1OC(C)C	124 to 125
COC(=O)c1ccc(OCCN)cc1	53 to 55.5
C#CCOc1c(Cl)cc(Cl)cc1C(=O)NCC1CCCN1C1CCCCC1 (configuration not stated)	84 to 85
CCCC(C)c1nn(-c2ccc(C(F)(F)F)cn2)cc1CCCO (configuration not stated)	72 to 73
Oc1ccc2c(-c3noc4cc(O)ccc34)cccc2c1	268 to 288
CC(=O)Oc1cccc(C(=O)Nc2ccc3ccc(Cl)nc3n2)c1	207
CN(c1cccc2cc(C3=NCC4(CCN(CC(N)=O)CC4)S3)[nH]c12)S(=O)(=O)c1cccs1	226
Cc1ccc2c(c1)c(=O)c(CO)cn2C	171 to 173
CC1(C)CC(=O)c2c(C3CCCCC3)sc(C#N)c2C1	129 to 132
CCCCCCCCOc1c(OC)cc(N)c2ncccc12	63 to 64
Cc1cc(CC(=O)OC(C)(C)C)ccc1NC(=O)Nc1ccccc1C(F)(F)F	178 to 180
CCCCCCCCCCCCCCCC(=O)Nc1cc([N+](=O)[O-])ccc1O	146 to 148
